In patent publication US20240210412A1, “SULFONYL-TRIAZOLE COMPOUNDS USEFUL AS LIGANDS AND INHIBITORS OF PROSTAGLANDIN REDUCTASE 2” (University of Virginia Patent Foundation, priority 2021, published 2024):

What was measured:
Test in all cases: SILAC LC-MS ABPP
Type in all cases: cell-based
Conditions in all cases: 25 μM 2 h, live DM93 cells
[1] = target: T1, P09960 (Homo sapiens, UniProt P09960)
T1 construct: endogenous in cells; host or cells: DM93 cells (SILAC)
Method in brief: (§1)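 Competitive activity-based profiling in isotopically labelled DM93 melanoma cells. Heavy cells received 25 μM sulfonyl-triazole ligand and light cells vehicle, each for 2 h at 37 °C, before 2 h with 100 μM HHS-475. Labelled soluble proteins were tagged via CuAAC, combined, digested and enriched before LC-MS/MS.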

[2] = target: T2, P22059 (Homo sapiens, UniProt P22059)
T2 construct: endogenous in cells; host or cells: DM93 (SILAC)
Method in brief: as §1

[3] = target: T3, Q92804 (Homo sapiens, UniProt Q92804)
T3 construct: endogenous in cells; host or cells: DM93 cells (SILAC), live-cell treatment
Method in brief: as §1

[4] = target: T4, P39019 (Homo sapiens, UniProt P39019)
T4 construct: Probe-modified proteins from the soluble fraction were conjugated to a desthiobiotin-azide tag; endogenous in cells; host or cells: DM93 (SILAC)
Method in brief: as §1

[5] = target: T5, P15559 (Homo sapiens, UniProt P15559)
T5 construct: endogenous in cells; host or cells: DM93 cells (SILAC)
T5 sequence (P15559 whole entry): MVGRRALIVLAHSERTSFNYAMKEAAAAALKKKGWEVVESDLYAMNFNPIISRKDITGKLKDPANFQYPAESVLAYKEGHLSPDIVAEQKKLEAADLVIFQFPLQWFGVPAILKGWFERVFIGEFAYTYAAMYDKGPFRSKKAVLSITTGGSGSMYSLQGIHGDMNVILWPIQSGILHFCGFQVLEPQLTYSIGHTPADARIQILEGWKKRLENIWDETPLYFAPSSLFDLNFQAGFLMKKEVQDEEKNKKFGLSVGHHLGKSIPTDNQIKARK
Method in brief: as §1

[6] = target: T6, Q9H3P2 (Homo sapiens, UniProt Q9H3P2)
T6 construct: endogenous in cells; host or cells: DM93 cells (SILAC), treated live; soluble proteome analysed
Method in brief: as §1

[7] = target: T7, P36507 (Homo sapiens, UniProt P36507)
T7 construct: endogenous in cells; host or cells: DM93 (SILAC)
Method in brief: as §1

[8] = target: T8, P20839 (Homo sapiens, UniProt P20839)
T8 construct: endogenous in cells; host or cells: DM93 (SILAC)
T8 sequence (P20839 2-514 limits assumed): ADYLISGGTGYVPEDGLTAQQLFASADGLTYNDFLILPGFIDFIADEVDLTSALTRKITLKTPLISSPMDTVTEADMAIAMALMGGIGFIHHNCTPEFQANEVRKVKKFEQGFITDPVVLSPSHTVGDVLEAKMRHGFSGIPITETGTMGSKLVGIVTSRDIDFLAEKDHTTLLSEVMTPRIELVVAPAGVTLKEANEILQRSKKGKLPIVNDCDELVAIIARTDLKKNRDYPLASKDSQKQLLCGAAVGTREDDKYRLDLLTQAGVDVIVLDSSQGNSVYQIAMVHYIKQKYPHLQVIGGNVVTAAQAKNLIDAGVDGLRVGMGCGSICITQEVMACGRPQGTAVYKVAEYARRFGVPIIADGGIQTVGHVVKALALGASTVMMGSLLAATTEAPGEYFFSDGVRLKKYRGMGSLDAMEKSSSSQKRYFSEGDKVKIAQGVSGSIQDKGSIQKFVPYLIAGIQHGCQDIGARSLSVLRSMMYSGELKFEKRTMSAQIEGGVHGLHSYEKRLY
Method in brief: as §1

[9] = target: T9, Q15293 (Homo sapiens, UniProt Q15293)
T9 construct: performing SuTEx compound screening directly in cells; endogenous in cells; host or cells: DM93 cells (SILAC), soluble fraction
T9 sequence (Q15293 30-331): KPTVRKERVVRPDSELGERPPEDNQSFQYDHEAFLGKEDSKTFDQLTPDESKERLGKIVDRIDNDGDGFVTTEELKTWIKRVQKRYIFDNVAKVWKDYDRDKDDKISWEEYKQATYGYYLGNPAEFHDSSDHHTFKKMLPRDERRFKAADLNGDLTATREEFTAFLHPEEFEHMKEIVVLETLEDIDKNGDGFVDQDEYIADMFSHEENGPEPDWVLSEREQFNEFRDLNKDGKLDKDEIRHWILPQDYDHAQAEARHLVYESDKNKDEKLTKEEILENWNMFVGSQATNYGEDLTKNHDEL
Method in brief: as §1

[10] = target: T10, Q969T9 (Homo sapiens, UniProt Q969T9)
T10 construct: endogenous in cells; host or cells: DM93 cells (SILAC), live-cell treatment
T10 sequence (Q969T9 whole entry): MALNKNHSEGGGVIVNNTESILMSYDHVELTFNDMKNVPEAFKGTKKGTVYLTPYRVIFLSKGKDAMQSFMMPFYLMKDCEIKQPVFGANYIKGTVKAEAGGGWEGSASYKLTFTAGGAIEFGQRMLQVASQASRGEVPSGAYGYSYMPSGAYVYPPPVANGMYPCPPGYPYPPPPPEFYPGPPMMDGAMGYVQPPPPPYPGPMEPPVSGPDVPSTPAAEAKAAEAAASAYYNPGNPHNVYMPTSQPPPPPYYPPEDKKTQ
Method in brief: as §1

[11] = target: T11, P13674 (Homo sapiens, UniProt P13674)
T11 construct: endogenous in cells; host or cells: DM93 cells (SILAC)
T11 sequence (P13674 18-534): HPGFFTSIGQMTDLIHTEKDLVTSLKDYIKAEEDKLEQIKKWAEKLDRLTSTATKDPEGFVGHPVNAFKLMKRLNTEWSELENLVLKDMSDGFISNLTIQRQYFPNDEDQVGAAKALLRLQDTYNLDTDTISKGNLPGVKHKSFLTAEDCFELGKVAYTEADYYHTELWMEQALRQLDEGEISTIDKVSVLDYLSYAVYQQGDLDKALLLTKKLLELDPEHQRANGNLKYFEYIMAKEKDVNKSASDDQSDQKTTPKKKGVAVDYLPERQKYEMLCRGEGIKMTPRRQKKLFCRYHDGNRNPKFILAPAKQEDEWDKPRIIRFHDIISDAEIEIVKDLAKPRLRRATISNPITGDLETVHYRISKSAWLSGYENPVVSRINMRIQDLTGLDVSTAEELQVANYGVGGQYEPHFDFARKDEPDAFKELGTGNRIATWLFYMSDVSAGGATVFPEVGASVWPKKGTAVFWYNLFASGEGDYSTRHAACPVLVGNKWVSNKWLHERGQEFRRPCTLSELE
T11 sequence (P07237 18-508 partner): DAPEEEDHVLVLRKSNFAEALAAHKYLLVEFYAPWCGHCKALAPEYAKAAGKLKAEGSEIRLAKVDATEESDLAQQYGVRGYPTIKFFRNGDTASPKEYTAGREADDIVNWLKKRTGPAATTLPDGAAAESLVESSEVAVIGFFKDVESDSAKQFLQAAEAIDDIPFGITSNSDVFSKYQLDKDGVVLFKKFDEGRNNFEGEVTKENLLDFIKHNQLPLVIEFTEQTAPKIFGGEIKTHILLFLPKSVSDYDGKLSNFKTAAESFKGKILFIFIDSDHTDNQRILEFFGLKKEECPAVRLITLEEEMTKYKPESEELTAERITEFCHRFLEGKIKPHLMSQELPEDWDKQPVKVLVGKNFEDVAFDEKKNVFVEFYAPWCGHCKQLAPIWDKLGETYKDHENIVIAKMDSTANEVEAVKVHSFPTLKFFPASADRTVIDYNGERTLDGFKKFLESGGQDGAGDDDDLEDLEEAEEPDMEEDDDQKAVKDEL
Method in brief: as §1

[12] = target: T12, Q9Y5K6 (Homo sapiens, UniProt Q9Y5K6)
T12 construct: endogenous in cells; host or cells: DM93 cells (SILAC)
T12 sequence (Q9Y5K6 whole entry): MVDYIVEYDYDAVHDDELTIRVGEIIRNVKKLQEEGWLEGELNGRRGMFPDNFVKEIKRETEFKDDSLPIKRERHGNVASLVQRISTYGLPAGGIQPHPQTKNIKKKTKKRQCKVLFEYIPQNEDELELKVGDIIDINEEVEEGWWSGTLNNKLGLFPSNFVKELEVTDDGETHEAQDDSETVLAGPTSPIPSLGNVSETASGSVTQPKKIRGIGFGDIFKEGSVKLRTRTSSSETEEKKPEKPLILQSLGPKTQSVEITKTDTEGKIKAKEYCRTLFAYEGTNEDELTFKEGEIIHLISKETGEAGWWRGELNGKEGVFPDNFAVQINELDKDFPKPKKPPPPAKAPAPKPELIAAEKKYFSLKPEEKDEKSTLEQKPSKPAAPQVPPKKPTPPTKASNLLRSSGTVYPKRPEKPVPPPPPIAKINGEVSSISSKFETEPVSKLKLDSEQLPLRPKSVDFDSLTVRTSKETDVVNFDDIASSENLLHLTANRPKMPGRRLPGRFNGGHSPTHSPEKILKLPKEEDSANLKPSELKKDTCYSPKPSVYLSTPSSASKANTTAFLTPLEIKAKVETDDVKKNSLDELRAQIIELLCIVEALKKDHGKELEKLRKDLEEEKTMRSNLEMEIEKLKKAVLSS
Method in brief: as §1

[13] = target: T13, Q8WVJ2 (Homo sapiens, UniProt Q8WVJ2)
T13 construct: endogenous in cells; host or cells: DM93 cells (SILAC), live-cell treatment
Method in brief: as §1

[14] = target: T14, Q8IX04 (Homo sapiens, UniProt Q8IX04)
T14 construct: endogenous in cells; host or cells: DM93 cells (SILAC), live-cell treatment
T14 sequence (Q8IX04 whole entry): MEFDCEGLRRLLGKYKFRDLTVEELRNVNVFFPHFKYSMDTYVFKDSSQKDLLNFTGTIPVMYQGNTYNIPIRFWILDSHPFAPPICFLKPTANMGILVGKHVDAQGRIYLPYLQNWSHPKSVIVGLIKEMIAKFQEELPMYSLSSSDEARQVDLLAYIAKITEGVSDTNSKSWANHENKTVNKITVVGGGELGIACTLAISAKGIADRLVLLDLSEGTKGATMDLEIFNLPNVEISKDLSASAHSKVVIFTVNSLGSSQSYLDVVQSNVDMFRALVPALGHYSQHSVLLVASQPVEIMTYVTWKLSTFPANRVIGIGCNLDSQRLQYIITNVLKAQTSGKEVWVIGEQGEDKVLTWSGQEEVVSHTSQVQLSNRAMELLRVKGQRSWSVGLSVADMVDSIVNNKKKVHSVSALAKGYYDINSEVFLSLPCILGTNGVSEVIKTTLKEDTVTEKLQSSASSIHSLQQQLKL
Method in brief: as §1

[15] = target: T15, P61289 (Homo sapiens, UniProt P61289)
T15 construct: endogenous in cells; host or cells: DM93 cells (SILAC)
Method in brief: as §1

[16] = target: T16, Q9NYF8 (Homo sapiens, UniProt Q9NYF8)
T16 construct: endogenous in cells; host or cells: DM93 cells (SILAC)
T16 sequence (Q9NYF8 whole entry): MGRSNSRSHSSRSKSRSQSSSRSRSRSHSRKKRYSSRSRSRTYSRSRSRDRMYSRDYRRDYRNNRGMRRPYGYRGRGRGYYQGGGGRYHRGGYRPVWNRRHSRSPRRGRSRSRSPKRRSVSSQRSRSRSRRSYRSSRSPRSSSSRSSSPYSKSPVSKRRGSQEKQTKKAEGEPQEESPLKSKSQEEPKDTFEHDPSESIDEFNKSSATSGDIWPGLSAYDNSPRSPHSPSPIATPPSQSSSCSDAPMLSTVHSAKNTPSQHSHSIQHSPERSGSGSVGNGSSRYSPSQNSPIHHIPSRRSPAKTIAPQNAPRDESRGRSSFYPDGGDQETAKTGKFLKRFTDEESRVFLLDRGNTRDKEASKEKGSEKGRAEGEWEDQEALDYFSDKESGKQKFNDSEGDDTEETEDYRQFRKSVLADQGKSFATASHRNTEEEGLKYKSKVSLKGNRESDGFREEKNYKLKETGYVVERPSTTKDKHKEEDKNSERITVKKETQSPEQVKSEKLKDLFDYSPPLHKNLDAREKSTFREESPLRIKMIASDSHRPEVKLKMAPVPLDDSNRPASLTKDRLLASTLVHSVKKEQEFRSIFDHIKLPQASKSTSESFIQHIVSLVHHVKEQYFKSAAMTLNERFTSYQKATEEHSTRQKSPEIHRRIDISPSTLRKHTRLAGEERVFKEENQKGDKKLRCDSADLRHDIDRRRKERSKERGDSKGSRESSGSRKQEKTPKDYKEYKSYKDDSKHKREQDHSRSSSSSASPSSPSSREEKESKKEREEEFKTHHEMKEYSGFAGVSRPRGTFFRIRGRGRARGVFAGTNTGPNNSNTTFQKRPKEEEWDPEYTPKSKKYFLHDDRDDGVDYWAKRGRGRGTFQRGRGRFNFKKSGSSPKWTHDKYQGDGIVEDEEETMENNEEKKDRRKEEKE
Method in brief: as §1

[17] = target: T17, P23588 (Homo sapiens, UniProt P23588)
T17 construct: Probe-modified proteins from the soluble fraction were conjugated to a desthiobiotin-azide tag; endogenous in cells; host or cells: DM93 (SILAC)
Method in brief: as §1

[18] = target: T18, Q96C86 (Homo sapiens, UniProt Q96C86)
T18 construct: endogenous in cells; host or cells: DM93 cells (SILAC), treated live; soluble proteome analysed
Method in brief: as §1

T1 sequence (P09960 whole entry): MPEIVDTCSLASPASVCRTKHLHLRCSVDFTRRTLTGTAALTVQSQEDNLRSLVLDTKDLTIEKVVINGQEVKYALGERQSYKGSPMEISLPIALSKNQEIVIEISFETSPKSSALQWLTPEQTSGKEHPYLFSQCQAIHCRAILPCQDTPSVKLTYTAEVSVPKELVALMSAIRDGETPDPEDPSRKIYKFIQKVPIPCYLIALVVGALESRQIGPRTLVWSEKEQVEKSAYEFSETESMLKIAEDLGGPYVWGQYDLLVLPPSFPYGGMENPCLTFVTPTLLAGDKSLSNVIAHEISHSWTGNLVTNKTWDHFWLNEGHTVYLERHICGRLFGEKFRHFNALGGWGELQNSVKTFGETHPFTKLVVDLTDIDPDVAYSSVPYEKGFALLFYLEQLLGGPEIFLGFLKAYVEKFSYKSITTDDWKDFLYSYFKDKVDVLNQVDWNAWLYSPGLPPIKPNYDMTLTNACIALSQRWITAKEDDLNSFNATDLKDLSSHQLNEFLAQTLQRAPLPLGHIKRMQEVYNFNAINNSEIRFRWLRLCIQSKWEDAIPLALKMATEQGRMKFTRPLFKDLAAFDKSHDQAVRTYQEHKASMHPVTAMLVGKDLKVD

## O=C(c1ccc(S(=O)(=O)n2cncn2)cc1)N1CCC(c2ccccc2)CC1 [HHS-0701, (4-((1H-1,2,4-triazol-1-yl)sulfonyl)phenyl)(4-phenylpiperidin-1-yl)methanone]
[1]
  liganded tyrosine site 379: HHS0701.Y (tyrosine sites that showed >80% reductions (SR >5) in probe labeling in cells treated with compounds (liganded sites))
  liganded tyrosine site 384: HHS0701.Y (tyrosine sites that showed >80% reductions (SR >5) in probe labeling in cells treated with compounds (liganded sites))

## O=C(NCC1CC1)c1ccc(S(=O)(=O)n2cncn2)cc1 [HHS-0201, 4-((1H-1,2,4-triazol-1-yl)sulfonyl)-N-(cyclopropylmethyl)benzamide]
[2]
  liganded tyrosine site 764: HHS0201.Y|HHS0701.Y (tyrosine sites that showed >80% reductions (SR >5) in probe labeling in cells treated with compounds (liganded sites))
[3]
  liganded tyrosine site 170: HHS0201.Y|HHS0301.Y (tyrosine sites that showed >80% reductions (SR >5) in probe labeling in cells treated with compounds (liganded sites))
[4]
  liganded tyrosine site 54: HHS0201.Y (tyrosine sites that showed >80% reductions (SR >5) in probe labeling in cells treated with compounds (liganded sites))

## O=C(NCc1ccccc1)c1ccc(S(=O)(=O)n2cncn2)cc1 [HHS-0401, 4-((1H-1,2,4-triazol-1-yl)sulfonyl)-N-benzylbenzamide]
[5]
  liganded tyrosine site 76: HHS0401.Y|HHS0701.Y (tyrosine sites that showed >80% reductions (SR >5) in probe labeling in cells treated with compounds (liganded sites))
[6]
  liganded tyrosine site 324: HHS0401.Y|HHS0701.Y (tyrosine sites that showed >80% reductions (SR >5) in probe labeling in cells treated with compounds (liganded sites))
[7]
  liganded tyrosine site 244: HHS0401.Y (tyrosine sites that showed >80% reductions (SR >5) in probe labeling in cells treated with compounds (liganded sites))
[8]
  liganded tyrosine site 233: HHS0401.Y (tyrosine sites that showed >80% reductions (SR >5) in probe labeling in cells treated with compounds (liganded sites))

## O=C(NC1CC1)c1ccc(S(=O)(=O)n2cncn2)cc1 [HHS-0101, 4-((1H-1,2,4-triazol-1-yl)sulfonyl)-N-cyclopropylbenzamide]
[9]
  liganded tyrosine site 320: HHS0101.Y (tyrosine sites that showed >80% reductions (SR >5) in probe labeling in cells treated with compounds (liganded sites))
[10]
  liganded tyrosine site 232: HHS0101.Y|HHS0701.Y (tyrosine sites that showed >80% reductions (SR >5) in probe labeling in cells treated with compounds (liganded sites))
[11]
  liganded tyrosine site 250: HHS0101.Y (tyrosine sites that showed >80% reductions (SR >5) in probe labeling in cells treated with compounds (liganded sites))
[12]
  liganded tyrosine site 361: HHS0101.Y|HHS0201.Y|HHS0401.Y (tyrosine sites that showed >80% reductions (SR >5) in probe labeling in cells treated with compounds (liganded sites))
[13]
  liganded tyrosine site 145: HHS0101.Y (tyrosine sites that showed >80% reductions (SR >5) in probe labeling in cells treated with compounds (liganded sites))
[14]
  liganded tyrosine site 158: HHS0101.Y|HHS0201.Y|HHS0301.Y (tyrosine sites that showed >80% reductions (SR >5) in probe labeling in cells treated with compounds (liganded sites))
[15]
  liganded tyrosine site 196: HHS0101.Y|HHS0201.Y|HHS0401.Y (tyrosine sites that showed >80% reductions (SR >5) in probe labeling in cells treated with compounds (liganded sites))
[16]
  liganded tyrosine site 322: HHS0101.Y|HHS0201.Y|HHS0301.Y|HHS0401.Y (tyrosine sites that showed >80% reductions (SR >5) in probe labeling in cells treated with compounds (liganded sites))
[17]
  liganded tyrosine site 258: HHS0101.Y (tyrosine sites that showed >80% reductions (SR >5) in probe labeling in cells treated with compounds (liganded sites))
[18]
  liganded tyrosine site 116: HHS0101.Y|HHS0401.Y (tyrosine sites that showed >80% reductions (SR >5) in probe labeling in cells treated with compounds (liganded sites))
